From ChEMBL document CHEMBL5352388 (Eur J Med Chem, 2022)
The source made the active and inactive calls. The rule behind the calls is not given here.

Tests used:
[1] = AUC (0-infinity) in Sprague-Dawley rat at 3 mg/kg,iv by LC-MS/MS analysis; type: ADME, organism-based; parameters: dose 3 mg/kg, route iv; settings: in vivo
A549 [2] = experiment: Induction of apoptosis in human A549 cells assessed as downregulation of AKT phosphorylation incubated for 72 hrs by Western blotting assay; type: functional, cell-based
A549 [3] = experiment: Antitumor activity against human A549 cells xenografted in BALB/c mouse assessed as decrease in tumor cell density at 20 mg/kg,ip administrated for 15 days; type: functional, organism-based; settings: time 15.0 day
A549 [4] = experiment: Antitumor activity against human A549 cells xenografted in BALB/c mouse assessed as reduction in KI67 positive cells at 20 mg/kg,ip administrated for 15 days; type: functional, organism-based; settings: time 15.0 day
[5] = biological target: T1, Lysine-specific histone demethylase 1A (Homo sapiens, UniProt O60341); experiment: Inhibition of LSD1 in human A549 cells assessed as increase in H3K9me1 protein level at 1 to 4 uM incubated for 72 hrs by Western blotting assay; type: cell-based; settings: dose 1-4 µM
A549 [6] = experiment: Antitumor activity against human A549 cells xenografted in BALB/c mouse assessed as chromatin condensation at 20 mg/kg,ip administrated for 15 days; type: functional, organism-based; settings: time 15.0 day
A549 [7] = experiment: Antitumor activity against human A549 cells xenografted in BALB/c mouse assessed as reduction in tumor growth at 20 mg/kg,ip administrated for 15 days; type: functional, organism-based; settings: time 15.0 day
[8] = Toxicity in BALB/c mouse xenografted with human A549 cells assessed as change in body weight at 10 mg/kg,ip administrated for 15 days; type: organism-based; settings: in vivo, 360 h, time 15 day
CYP2C19 = CYP2C19 (Homo sapiens, UniProt P33261); experiment: Inhibition of CYP2C19 (unknown origin) at 10 uM incubated for 20 mins in presence of NADPH by LC/MS/MS analysis relative to control; type: ADME
A549 [9] = experiment: Antitumor activity against human A549 cells xenografted in BALB/c mouse assessed as reduction in KI67 positive cells at 10 mg/kg,ip administrated for 15 days; type: functional, organism-based; settings: time 15.0 day
A549 [10] = experiment: Induction of apoptosis in human A549 cells assessed as downregulation of BCL-2 at 1 to 4 uM incubated for 72 hrs by Western blotting assay; type: functional, cell-based; settings: dose 1-4 µM
[11] = AUC (0-infinity) in Sprague-Dawley rat at 10 mg/kg,po by LC-MS/MS analysis; type: ADME, organism-based; parameters: dose 10 mg/kg, route po; settings: in vivo
[12] = Half life in Sprague-Dawley rat at 3 mg/kg,iv by LC-MS/MS analysis; type: ADME, organism-based; settings: in vivo
A549 [13] = experiment: Antitumor activity against human A549 cells xenografted in BALB/c mouse assessed as reduction in tumor growth at 10 mg/kg,ip administrated for 15 days; type: functional, organism-based; settings: time 15.0 day
MCF7 = experiment: cells; settings: Homo sapiens, MCF7, 72 h
Description: Antiproliferative activity against human MCF7 cells assessed as inhibition of cell growth incubated for 72 hrs by CCK-8 assay

A549 [14] = experiment: Antitumor activity against human A549 cells xenografted in BALB/c mouse assessed as decrease in tumor cell density at 10 mg/kg,ip administrated for 15 days; type: functional, organism-based; settings: time 15.0 day
[15] = biological target: T2, Amine oxidase [flavin-containing] A (Homo sapiens, UniProt P21397)
T2 sequence (P21397 whole entry): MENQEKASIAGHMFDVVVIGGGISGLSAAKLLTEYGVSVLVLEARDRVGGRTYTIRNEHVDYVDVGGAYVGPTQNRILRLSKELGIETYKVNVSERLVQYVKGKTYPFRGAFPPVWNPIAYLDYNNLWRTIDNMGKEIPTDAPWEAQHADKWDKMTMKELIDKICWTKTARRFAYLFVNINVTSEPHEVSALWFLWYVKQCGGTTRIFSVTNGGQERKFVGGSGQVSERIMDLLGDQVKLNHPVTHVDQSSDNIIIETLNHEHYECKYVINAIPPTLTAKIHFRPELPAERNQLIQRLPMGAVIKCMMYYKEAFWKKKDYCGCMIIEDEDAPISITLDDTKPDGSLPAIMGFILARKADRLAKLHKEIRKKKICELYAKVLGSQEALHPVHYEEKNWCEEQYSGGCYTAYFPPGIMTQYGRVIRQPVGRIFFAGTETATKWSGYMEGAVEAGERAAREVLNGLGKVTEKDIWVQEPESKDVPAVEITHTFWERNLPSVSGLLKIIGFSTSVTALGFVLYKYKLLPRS
Description: Inhibition of recombinant MAO-A (unknown origin) incubated for 60 mins by luminescence based flow cytometry

[16] = biological target: T1, Lysine-specific histone demethylase 1A; experiment: Inhibition of LSD1 in human A549 cells assessed as increase in H3K4me1 protein level at 1 to 4 uM incubated for 72 hrs by Western blotting assay; type: cell-based; settings: dose 1-4 µM
A549 [17] = experiment: Antitumor activity against human A549 cells xenografted in BALB/c mouse assessed as appearance of pyknosis at 20 mg/kg,ip administrated for 15 days; type: functional, organism-based; settings: time 15.0 day
A549 [18] = experiment: Antitumor activity against human A549 cells xenografted in BALB/c mouse assessed as chromatin condensation at 10 mg/kg,ip administrated for 15 days; type: functional, organism-based; settings: time 15.0 day
[19] = biological target: T1, Lysine-specific histone demethylase 1A; experiment: Binding affinity to LSD1 in human A549 cells assessed as increase in thermal stability at 10 uM incubated for 1 hr by cellular thermal shift assay; type: cell-based
[20] = biological target: T1, Lysine-specific histone demethylase 1A
Description: Inhibition of recombinant human LSD1 using fluorometric substrate by HRP based fluorimeter microplate reader assay

[21] = biological target: T1, Lysine-specific histone demethylase 1A; experiment: Inhibition of LSD1 in human A549 cells assessed as increase in H3K9me2 protein level at 1 to 4 uM incubated for 72 hrs by Western blotting assay; type: cell-based; settings: dose 1-4 µM
[22] = Metabolic stability in human liver microsomes assessed as compound remaining measured upto 60 mins in presence of NADPH by LC/MS/MS analysis; type: ADME, Microsome; settings: read-out: Stability
in vitro = settings: human, THLE-2 cells
Description: Antiproliferative activity against human THLE-2 cells assessed as inhibition of cell growth incubated for 72 hrs by CCK-8 assay

A549 [23] = experiment: Induction of apoptosis in human A549 cells at 4 uM incubated for 48 hrs by Annexin V-FITC/PI staining based flow cytometry method; type: functional
[24] = Half life in human liver microsomes measured upto 60 mins in presence of NADPH by LC/MS/MS analysis; type: ADME, Microsome
A549 [25] = experiment: Inhibition of colony formation in human A549 cells at 2 uM; type: functional, cell-based

Chain of CYP2C19 (P33261 whole entry): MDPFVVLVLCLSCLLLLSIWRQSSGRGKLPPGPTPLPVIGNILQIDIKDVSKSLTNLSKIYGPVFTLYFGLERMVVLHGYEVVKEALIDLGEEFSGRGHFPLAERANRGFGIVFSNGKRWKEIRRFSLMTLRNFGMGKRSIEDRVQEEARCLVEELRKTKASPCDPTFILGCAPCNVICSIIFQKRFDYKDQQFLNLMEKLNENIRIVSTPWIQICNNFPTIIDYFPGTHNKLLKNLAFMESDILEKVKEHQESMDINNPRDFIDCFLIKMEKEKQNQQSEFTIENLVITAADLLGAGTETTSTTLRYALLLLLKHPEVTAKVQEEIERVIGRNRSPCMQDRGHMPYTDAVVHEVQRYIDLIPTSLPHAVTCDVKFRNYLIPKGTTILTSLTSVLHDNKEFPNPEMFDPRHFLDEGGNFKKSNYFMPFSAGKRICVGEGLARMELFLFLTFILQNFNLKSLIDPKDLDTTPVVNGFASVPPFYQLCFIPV

Q: With `Cc1ccc(-c2cc3c(cc2-c2ccc(C#N)cc2)c(C(=O)N2CCC(N)CC2)cn3S(=O)(=O)c2ccc(F)cc2)cc1` as the compound, how does the AUC(0-inf) [1] read?
A: Its AUC(0-inf) is 1450 ng·h/mL.

Q: And the Activity (A549 [2])?
A: Its Activity is “Active”.

Q: And the Activity (A549 [3])?
A: Its Activity is “Active”.

Q: And the Activity (A549 [4])?
A: Its Activity is “Active”.

Q: And the inhibition [5]?
A: Its inhibition is “Dose-Dependent Effect”.

Q: And the Activity (A549 [6])?
A: The Activity was “Active”.

Q: What about the Activity (A549 [7]) of the same compound?
A: Its Activity is “Active”.

Q: What about the Activity [8] of the same compound?
A: Its Activity is “Non-Toxic”.

Q: And the inhibition at 20 min, 10 µM (CYP2C19)?
A: The inhibition at 20 min, 10 µM was 17.5%.

Q: And the Activity (A549 [9])?
A: Its Activity is “Active”.

Q: And the Activity (A549 [10])?
A: Its Activity is “Dose-Dependent Effect”.

Q: And the AUC(0-inf) [11]?
A: Its AUC(0-inf) is 362 ng·h/mL.

Q: And the half-life [12]?
A: The half-life was 8.78 h.

Q: What about the Activity (A549 [13]) of the same compound?
A: Its Activity is “Active”.

Q: What about the IC50 (MCF7) of the same compound?
A: The IC50 was 3400 nM.

Q: And the Activity (A549 [14])?
A: Its Activity is “Active”.

Q: What about the IC50 [15] of the same compound?
A: Its IC50 is 2040 nM.

Q: What about the inhibition [16] of the same compound?
A: The inhibition was “Dose-Dependent Effect”.

Q: What about the Activity (A549 [17]) of the same compound?
A: Its Activity is “Active”.

Q: What about the Activity (A549 [18]) of the same compound?
A: The Activity was “Active”.

Q: What about the Activity [19] of the same compound?
A: Its Activity is “Active”.

Q: And the IC50 [20]?
A: The IC50 was 50 nM.

Q: And the inhibition [21]?
A: Its inhibition is “Dose-Dependent Effect”.

Q: And the remaining at 1 h [22]?
A: The remaining at 1 h was 79.2%.

Q: And the IC50 at 72 h (in vitro)?
A: Its IC50 at 72 h is 3100 nM.

Q: And the Activity (A549 [23])?
A: Its Activity is 52.5%.

Q: What about the half-life [24] of the same compound?
A: Its half-life is 2.42 h.

Q: What about the inhibition (A549 [25]) of the same compound?
A: Its inhibition is “Active”.
